Measured values published in patent publication US8999956B2, “N-[(het)arylalkyl)] pyrazole(thio)carboxamides and their heterosubstituted analogues” (Bayer Intellectual Property GmbH, priority 2010, dated 2015).
Like-named read-outs stand apart in the source and are kept apart here.

How the values were obtained:
Uromyces appendiculatus = test: In vivo preventive test on Uromyces appendiculatus (beans); details: 100 ppm of active ingredient, evaluated 10 days after inoculation
Experimental: (§1) Solvent: 24.5 parts by weight of acetone • 24.5 parts by weight of N,N-dimethylacetamide Emulsifier: 1 part by weight of alkylaryl polyglycol ether To produce a suitable preparation of active compound, 1 part by weight of active compound is mixed with the stated amounts of solvent and emulsifier, and the concentrate is diluted with water to the desired concentration. To test for preventive activity, young plants are sprayed with the preparation of active compound at the stated rate of application.

[1] = test system: Blumeria graminis fsp. hordei; test: In vivo preventive test on Blumeria graminis (barley); details: 500 ppm of active ingredient, evaluated 7 days after inoculation
Experimental: (§2) Solvent: 49 parts by weight of N,N-dimethylacetamide Emulsifier: 1 part by weight of alkylaryl polyglycol ether To produce a suitable preparation of active compound, 1 part by weight of active compound or active compound combination is mixed with the stated amounts of solvent and emulsifier, and the concentrate is diluted with water to the desired concentration. To test for preventive activity, young plants are sprayed with the preparation of active compound or active compound combination at the stated rate of application. After the spray coating has been dried, the plants are dusted with spores of Blumeria graminis fsp. hordei.

Venturia inaequalis = test: In vivo preventive test on Venturia inaequalis (apple scab); details: 100 ppm of active ingredient, evaluated 10 days after inoculation
Experimental: as §1

Puccinia triticina = test: In vivo preventive test on Puccinia triticina (wheat); details: Table K, 500 ppm of active ingredient, evaluated 8 days after inoculation; for pest or weed control at 500 ppm: Puccinia triticina, 192 h, read-out: Efficacy
[2] = test system: aflatoxines produced by Aspergillus parasiticus; test: microbe, parasite or virus in culture; format: cell-based
[3] = test system: Fusarium nivale (var. majus); test: In vivo preventive test on Fusarium nivale (wheat); details: 500 ppm of active ingredient, evaluated 5 days after inoculation
Experimental: as §2, with “slightly injured by using a sandblast and afterwards they are sprayed” for “dusted”, “a conidia suspension” for “spores”, “Fusarium nivale (var. majus).” for “Blumeria graminis fsp. hordei.”

Aspergillus parasiticus = test: microbe, parasite or virus in culture; format: cell-based
[4] = log P by HPLC on reversed-phase column (EEC Directive 79/831 Annex V.A8); format: physicochemical
Experimental: In table 1, the log P values were determined in accordance with EEC Directive 79/831 Annex V.A8 by HPLC (High Performance Liquid Chromatography) on a reversed-phase column (C18), using the method described below: Temperature: 40° C.; […]

Septoria tritici = test: In vivo preventive test on Septoria tritici (wheat); details: 500 ppm of active ingredient, evaluated 21 days after inoculation
Experimental: as §2, with “sprayed” for “dusted”, “a spore suspension” for “spores”, “Septoria tritici.” for “Blumeria graminis fsp. hordei.”

Alternaria solani = test: In vivo preventive test on Alternaria solani (tomato); details: 500 ppm of active ingredient, evaluated 7 days after inoculation
Method in brief: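 Young tomato plants sprayed preventively with compound in DMF/alkylarylpolyglycolether emulsion diluted in water to the stated rate. Inoculation with aqueous Alternaria solani spore suspension one day after treatment.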

Pyrenophora teres = test: In vivo preventive test on Pyrenophora teres (barley); details: 500 ppm of active ingredient, evaluated 7-9 days after inoculation
Method in brief: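 Compound formulated in N,N-dimethylformamide with alkylaryl polyglycol ether emulsifier and diluted in water, then sprayed on young barley plants at the stated application rate. Plants inoculated one day later with aqueous Pyrenophora teres spore suspension, testing preventive protection.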

Sphaerotheca fuliginea = test: In vivo preventive test on Sphaerotheca fuliginea (cucumber); details: 500 ppm of active ingredient, evaluated 7 days after inoculation
Method in brief: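 Young cucumber plants sprayed with compound (in DMF with alkylarylpolyglycolether emulsifier, diluted in water) at the stated application rate. Inoculated one day later with aqueous Sphaerotheca fuliginea spore suspension. Plants then held in greenhouse at approximately 23° C and approximately 70% relative humidity.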

Cochliobolus miyabeanus = test: In vivo protective test on Cochliobolus miyabeanus (rice); details: Table M, 250 ppm of active ingredient, evaluated 4 days after inoculation
Leptosphaeria nodorum = test: In vivo preventive test on Leptosphaeria nodorum (wheat); details: 500 ppm of active ingredient, evaluated 7-9 days after inoculation
Method in brief: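 Compound formulated in N,N-dimethylacetamide with alkylaryl polyglycol ether emulsifier and diluted with water. Young wheat plants were sprayed at the stated application rate, then inoculated one day later with an aqueous spore suspension of L. nodorum.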

Botrytis cinerea = test: In vivo preventive test on Botrytis cinerea (beans); details: Table L, 500 ppm of active ingredient, lesion size 2 days after inoculation
Experimental: Solvent: 24.5 parts by weight of acetone • 24.5 parts by weight of N,N-dimethylacetamide
Emulsifier: 1 part by weight of alkylaryl polyglycol ether
To produce a suitable preparation of active compound, 1 part by weight of active compound is mixed with the stated amounts of solvent and emulsifier, and the concentrate is diluted with water to the desired concentration.
To test for preventive activity, young plants are sprayed with the preparation of active compound. After the spray coating has dried on, 2 small pieces of agar covered with growth of Botrytis cinerea are placed on each leaf. The inoculated plants are placed in a darkened chamber at 20° C. and a relative atmospheric humidity of 100%.
2 days after the inoculation, the size of the lesions on the leaves is evaluated. 0% means an efficacy which corresponds to that of the untreated control, while an efficacy of 100% means that no disease is observed.

Phakopsora pachyrhizi = test: In vivo protective test on Phakopsora pachyrhizi (soybeans); details: Table N, 250 ppm of active ingredient, evaluated 11 days after inoculation

CC(C)CC(C)C1CCCCC1NC(=O)c1c(C(F)F)nn(C)c1Cl (single isomer, unassigned) [Example 335]
Efficacy (Uromyces appendiculatus): 100% | Efficacy [1]: 70% | Efficacy (Venturia inaequalis): 100% | Efficacy (Puccinia triticina): 100% | % Inhibition of Aflatoxin at 50 μM [2]: 100% | Efficacy [3]: 86% | % Inhibition of fungal growth at 50 μM (Aspergillus parasiticus; 50 µM): 84% | logP [4]: 4.96 isomer B

CCCC1CCCCC1NC(=O)c1c(C(F)F)nn(C)c1F (single isomer, unassigned) [Example 343]
Efficacy [1]: 94% | Efficacy (Venturia inaequalis): 97% | Efficacy (Septoria tritici): 100% | Efficacy (Alternaria solani): 95% | Efficacy (Puccinia triticina): 70% | % Inhibition of Aflatoxin at 50 μM [2]: 100% | Efficacy [3]: 100% | % Inhibition of fungal growth at 50 μM (Aspergillus parasiticus; 50 µM): 87% | logP [4]: 3.42 isomer A | Efficacy (Pyrenophora teres): 100%

Cn1nc(C(F)F)c(C(=O)NC2CCCCC2CCC(C)(C)C)c1Cl (single isomer, unassigned) [Example 354]
Efficacy (Uromyces appendiculatus): 100% | Efficacy [1]: 100% | Efficacy (Venturia inaequalis): 100% | Efficacy (Puccinia triticina): 100% | Efficacy [3]: 100% | logP [4]: 4.73 isomer A

Cn1nc(C(F)F)c(C(=O)NC2CCCCC2CCC(C)(C)C)c1Cl (single isomer, unassigned) [Example 355]
Efficacy (Uromyces appendiculatus): 100% | Efficacy [1]: 80% | Efficacy (Venturia inaequalis): 99% | Efficacy [3]: 100% | logP [4]: 4.95 isomer B

CC(CC(C)(C)C)C1CCCCC1NC(=O)c1c(C(F)F)nn(C)c1F (single isomer, unassigned) [Example 360]
Efficacy [1]: 100% | Efficacy (Venturia inaequalis): 100% | Efficacy (Septoria tritici): 90% | Efficacy (Alternaria solani): 95% | Efficacy (Puccinia triticina): 100% | % Inhibition of Aflatoxin at 50 μM [2]: 100% | Efficacy [3]: 86% | % Inhibition of fungal growth at 50 μM (Aspergillus parasiticus; 50 µM): 96% | Efficacy (Sphaerotheca fuliginea): 100% | Efficacy (Cochliobolus miyabeanus): 94% | logP [4]: 4.85 isomer A | Efficacy (Pyrenophora teres): 95%

CC(N(C(=O)c1c(C(F)F)nn(C)c1F)C1CC1)C(C)(C)Cc1ccccc1 (centres unmarked) [Example 9]
Efficacy (Uromyces appendiculatus): 94% | Efficacy (Leptosphaeria nodorum): 100% | Efficacy (Botrytis cinerea): 100% | Efficacy [1]: 100% | Efficacy (Venturia inaequalis): 100% | Efficacy (Septoria tritici): 100% | Efficacy (Alternaria solani): 90% | Efficacy [3]: 100% | Efficacy (Sphaerotheca fuliginea): 95% | logP [4]: 4.06 | Efficacy (Pyrenophora teres): 100%

CC(CCc1ccc(Cl)cc1Cl)N(C(=O)c1c(C(F)F)nn(C)c1F)C1CC1 (centres unmarked) [Example 184]
Efficacy (Uromyces appendiculatus): 100% | Efficacy (Leptosphaeria nodorum): 95% | Efficacy [1]: 100% | Efficacy (Venturia inaequalis): 100% | Efficacy (Septoria tritici): 100% | Efficacy (Alternaria solani): 90% | Efficacy (Puccinia triticina): 90% | % Inhibition of Aflatoxin at 50 μM [2]: 100% | Efficacy [3]: 100% | % Inhibition of fungal growth at 50 μM (Aspergillus parasiticus): 100% | Efficacy (Sphaerotheca fuliginea): 100% | logP [4]: 4.56 | Efficacy (Pyrenophora teres): 100%

CC(CCc1c(Cl)cc(Cl)cc1Cl)N(C(=O)c1c(C(F)F)nn(C)c1F)C1CC1 (centres unmarked) [Example 213]
Efficacy (Leptosphaeria nodorum): 95% | Efficacy (Botrytis cinerea): 86% | Efficacy [1]: 100% | Efficacy (Septoria tritici): 93% | Efficacy (Alternaria solani): 100% | Efficacy (Puccinia triticina): 90% | % Inhibition of Aflatoxin at 50 μM [2]: 100% | Efficacy [3]: 93% | % Inhibition of fungal growth at 50 μM (Aspergillus parasiticus): 100% | Efficacy (Sphaerotheca fuliginea): 99% | logP [4]: 5.14 | Efficacy (Pyrenophora teres): 100%

CON(C(=O)c1c(C(F)F)nn(C)c1Cl)C(C)CCc1c(Cl)cc(Cl)cc1Cl (centres unmarked) [Example 218]
Efficacy (Uromyces appendiculatus): 95% | Efficacy (Venturia inaequalis): 100% | Efficacy (Septoria tritici): 86% | Efficacy (Alternaria solani): 90% | Efficacy [3]: 100% | logP [4]: 4.89 | Efficacy (Pyrenophora teres): 100%

Cn1nc(C(F)F)c(C(=O)N(CC2CCCCC2c2ccc(Cl)cc2Cl)C2CC2)c1F (centres unmarked) [Example 242]
Efficacy (Uromyces appendiculatus): 100% | Efficacy (Botrytis cinerea): 95% | Efficacy (Venturia inaequalis): 100% | Efficacy (Phakopsora pachyrhizi): 99% | Efficacy (Alternaria solani): 100% | Efficacy (Puccinia triticina): 100% | % Inhibition of Aflatoxin at 50 μM [2]: 100% | % Inhibition of fungal growth at 50 μM (Aspergillus parasiticus): 100% | Efficacy (Sphaerotheca fuliginea): 100% | logP [4]: 5.31 | Efficacy (Pyrenophora teres): 100%

Cn1nc(C(F)F)c(C(=O)NC2CCCC2CCC(C)(C)C)c1F (centres unmarked) [Example 319, 3-(difluoromethyl)-N-[2-(3,3-dimethylbutyl)cyclopentyl]-5-fluoro-1-methyl-1H-pyrazole-4-carboxamide]
Efficacy (Botrytis cinerea): 73% | Efficacy [1]: 100% | Efficacy (Septoria tritici): 100% | Efficacy (Alternaria solani): 100% | pest or weed control at 500 ppm (Puccinia triticina): 80% | inhibition at 50 µM ([2]; Aspergillus parasiticus, 168 h, read-out: % Inhibition of Aflatoxin at 50 μM): 100% | Efficacy [3]: 100% | inhibition at 50 µM (Aspergillus parasiticus; Aspergillus parasiticus, 168 h, read-out: % Inhibition of fungal growth at 50 μM): 89% | Efficacy (Sphaerotheca fuliginea): 100% | chromatographic logP ([4]; log P (isomer A)): 4.22 | chromatographic logP ([4]; log P (isomer B)): 4.28 | chromatographic logP ([4]; logP): 4.22 | Efficacy (Pyrenophora teres): 100%

Cn1nc(C(F)F)c(C(=O)NC2CCCC(CCC(C)(C)C)C2)c1F (centres unmarked) [Example 324, 3-(difluoromethyl)-N-[3-(3,3-dimethylbutyl)cyclohexyl]-5-fluoro-1-methyl-1H-pyrazole-4-carboxamide]
Efficacy (Alternaria solani): 90% | pest or weed control at 500 ppm (Puccinia triticina): 100% | Efficacy [3]: 100% | Efficacy (Cochliobolus miyabeanus): 97% | chromatographic logP ([4]; log P): 4.8 | chromatographic logP ([4]; logP): 4.8 | Efficacy (Pyrenophora teres): 94%

CCCCCCC1CCCCC1NC(=O)c1c(C(F)F)nn(C)c1F (centres unmarked) [Example 326]
Efficacy (Septoria tritici): 78% | Efficacy (Puccinia triticina): 100% | Efficacy [3]: 92% | logP [4]: 5.07

CCCCC1CCCCC1NC(=O)c1c(C(F)F)nn(C)c1Cl (centres unmarked) [Example 331]
Efficacy (Uromyces appendiculatus): 100% | Efficacy [1]: 100% | Efficacy (Venturia inaequalis): 100% | Efficacy (Septoria tritici): 100% | Efficacy (Alternaria solani): 100% | Efficacy (Puccinia triticina): 90% | % Inhibition of Aflatoxin at 50 μM [2]: 99% | Efficacy [3]: 100% | % Inhibition of fungal growth at 50 μM (Aspergillus parasiticus): 79% | Efficacy (Sphaerotheca fuliginea): 100% | logP [4]: 4.10 | Efficacy (Pyrenophora teres): 95%

CC(CC(C)(C)C)C1CCCCC1NC(=O)c1c(C(F)F)nn(C)c1Cl (centres unmarked) [Example 359]
Efficacy (Uromyces appendiculatus): 100% | Efficacy [1]: 94% | Efficacy (Venturia inaequalis): 99% | Efficacy (Septoria tritici): 100% | Efficacy (Alternaria solani): 95% | Efficacy (Puccinia triticina): 100% | % Inhibition of Aflatoxin at 50 μM [2]: 100% | Efficacy [3]: 100% | % Inhibition of fungal growth at 50 μM (Aspergillus parasiticus): 90% | Efficacy (Sphaerotheca fuliginea): 100% | logP [4]: 5.28 | Efficacy (Pyrenophora teres): 100%
